According to PMC11401813, “Grewiifopenes A–K, bioactive clerodane diterpenoids from Casearia grewiifolia Vent” (Natural Products and Bioprospecting, 2024):
Converted amounts (≈) assume the structure as drawn. Where two headings read alike, the source gives them in different places.

How the values were obtained:
[1] = system: MOLT-3 (acute lymphoblastic leukemia); experiment: Cytotoxicity, XTT method, MOLT-3; type: cell-based; details: Homo sapiens
Procedure: (§1) The in vitro cytotoxicity assay toward a panel of human cancer cell lines of several clerodane diterpenoids has been well investigated. Thus, the isolates in adequate amounts were tested against MOLT-3 (acute lymphoblastic leukemia), HuCCA-1 (cholangiocarcinoma), HepG2 (hepatocellular carcinoma), A549 (lung adenocarcinoma), HeLa (cervical carcinoma), and MDA-MB-231 (triple negative breast cancer) cancer cell lines using the MTT and XTT methods. Doxorubicin and etoposide were used as positive controls.
(§2) The MTT (3-(4,5-dimethylthiazol-2-yl)-2,5-diphenyltetrazolium bromide) assay was employed for the cytotoxic evaluation against five human cancer cell lines, including HepG2, A549, MDA-MB-231, HeLa, and HuCCA-1, while the XTT (2,3-bis-(2-methoxy-4-nitro-5-sulphenyl)-(2H)-tetrazolium-5-carboxanilide) method was used for MOLT-3 cancer cell.

[2] = system: HuCCA-1 (cholangiocarcinoma); experiment: Cytotoxicity, MTT assay, HuCCA-1; type: cell-based, human; details: for IC50: Homo sapiens
Procedure: as §1, §2

[3] = system: A549 (lung adenocarcinoma); experiment: Cytotoxicity, MTT assay, A549; type: cell-based, human; details: mean ± s.d. (n = 3); for IC50: Homo sapiens, A549, A549 cell line
Procedure: as §1, §2

[4] = system: HeLa (cervical carcinoma); experiment: Cytotoxicity, MTT assay, HeLa; type: cell-based, human; details: for IC50: Homo sapiens, HeLa, read-out: IC50, HeLa
Procedure: as §1, §2

[5] = system: MDA-MB-231 (triple negative breast cancer); experiment: Cytotoxicity, MTT assay, MDA-MB-231; type: cell-based, human
Procedure: as §1, §2

[6] = system: HepG2 (hepatocellular carcinoma); experiment: Cytotoxicity, MTT assay, HepG2; type: cell-based, human; details: for IC50: Homo sapiens
Procedure: as §1, §2

[7] = system: Staphylococcus aureus (ATCC 6538); experiment: Antibacterial broth microdilution (MIC/MBC), S. aureus; type: cell-based; details: ATCC6538
Procedure: (§3) In addition, the isolates were also evaluated for their antibacterial activity towards three strains including Bacillus cereus (ATCC 11778), Staphylococcus aureus (ATCC 6538) and Staphylococcus epidermidis (ATCC 12228) using penicillin G and gentamicin as the antibiotic controls (Table 5). […] Finally, the inhibitory activity of aromatase by using a CYP19 screening kit was investigated. The aromatase (also called estrogen synthase) is responsible for converting the non-aromatic ring A of androgens to estrogens, which are related to the proliferation of breast cancer cells.
(§4) The tested strains, Staphylococcus aureus (S. aureus) ATCC6538, Staphylococcus epidermidis (S. epidermidis) ATCC12228, and Bacillus cereus (B. cereus) ATCC11778 were obtained from the American Type Culture Collection (ATCC).
(§5) All tested species were grown on Mueller Hinton Agar (MHA) and incubated at 37 °C for 18–24 h. The bacterial colonies suspension in sterile normal saline was diluted until they reached a 1 × 10^6 CFC/mL concentration, which was then compared to the McFarland scale. This step provided a standard bacterial suspension (1 × 10^6 CFU/mL), which was used for the following assays.
(§6) The broth microdilution technique was used for the MIC and MBC determination, which was expressed according to Clinical and Laboratory Standards Institute (CLSI) standard M07 guideline. The compounds were prepared as a stock solution by dissolving in dimethyl sulfoxide (DMSO) with the concentration ranging from 0.195 to 200 µg/mL. DMSO and penicillin G or gentamicin were used as normal and standard drug control. […] Three replicates were performed for each experiment.

[8] = system: Staphylococcus epidermidis (ATCC 12228); experiment: Antibacterial broth microdilution (MIC/MBC), S. epidermidis; type: cell-based; details: ATCC12228
Procedure: as §3, §4, §5, §6

[9] = system: Bacillus cereus (ATCC 11778); experiment: Antibacterial broth microdilution (MIC/MBC), B. cereus; type: cell-based; details: for MBC / MIC: Bacillus cereus, ATCC11778
Procedure: as §3, §4, §5, §6

aromatase (CYP19) = target: T1, aromatase (CYP19) (Homo sapiens, UniProt P11511); experiment: Aromatase (CYP19) inhibition assay; type: biochemical; details: for inhibition at 12.5 µM: at a concentration of 12.5 µM; for Aromatase inhibitory activity (in words): at the concentration up to 12.15 µM
T1 construct: purchased
T1 sequence (P11511 1-503): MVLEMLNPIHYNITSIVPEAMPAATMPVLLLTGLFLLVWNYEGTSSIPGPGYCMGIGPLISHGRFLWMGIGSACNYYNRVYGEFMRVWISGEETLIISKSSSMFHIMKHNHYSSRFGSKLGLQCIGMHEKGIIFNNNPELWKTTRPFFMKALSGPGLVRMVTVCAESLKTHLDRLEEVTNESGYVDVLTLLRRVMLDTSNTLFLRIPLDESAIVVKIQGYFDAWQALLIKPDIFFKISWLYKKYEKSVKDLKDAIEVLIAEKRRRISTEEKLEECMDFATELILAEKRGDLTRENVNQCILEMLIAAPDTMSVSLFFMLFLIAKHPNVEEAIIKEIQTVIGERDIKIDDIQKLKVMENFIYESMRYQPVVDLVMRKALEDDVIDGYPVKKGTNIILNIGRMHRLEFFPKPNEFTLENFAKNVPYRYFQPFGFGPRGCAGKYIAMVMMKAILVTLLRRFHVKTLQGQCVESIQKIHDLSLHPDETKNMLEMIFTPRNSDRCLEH
Procedure: as §3
The aromatase assay used a method previously designed by Stresser and co-workers.

[10] = system: MOLT-3, HuCCA-1, HepG2, A549, HeLa, and MDA-MB-231 cancer cell lines; experiment: Cytotoxicity toward panel of human cancer cell lines (MTT and XTT); type: cell-based; details: for IC50: Homo sapiens, read-out: IC50 range over the cancer cell line panel
Source text: The in vitro cytotoxicity assay toward a panel of human cancer cell lines of several clerodane diterpenoids has been well investigated. […] Doxorubicin and etoposide were used as positive controls.

[11] = MOLT-3 cell line, XTT, mean ± s.d. (n = 3), read-out: IC50, MOLT-3
[12] = HuCC-A1, HuCCA-1 cell line, MTT, mean ± s.d. (n = 3), read-out: IC50, HuCCA-1
[13] = HeLa cell line, MTT, mean ± s.d. (n = 3)
[14] = Homo sapiens, MDA-MB-231, MDA-MB-231 cell line, MTT, mean ± s.d. (n = 3), read-out: IC50, MDA-MB-231
[15] = MDA-MB-231 cell line, MTT, mean ± s.d. (n = 3), read-out: IC50, MDA-MB-231
[16] = HepG2, HepG2 cell line, MTT, mean ± s.d. (n = 3), read-out: IC50, HepG2
[17] = range over all cell lines tested

C=CC(=C)CC[C@]1(C)[C@H](C)C[C@H](O)[C@@]23C(=C[C@H](OC(=O)[C@@H](C)CC)C[C@@H]12)[C@@H](OC(C)=O)O[C@H]3OC(C)=O [Compound 7, isocaseamembrin E]
IC50 [1, 11]: 1.4 ± 0.2 µM | IC50 [2, 12]: 0.7 ± 0.1 µM | IC50 [3]: 0.3 ± 0.02 µM | IC50 [4, 13]: 0.9 ± 0.1 µM | IC50 [5, 14]: 2 to 2.2 µM | IC50 [5, 15]: 2 ± 0.2 µM | IC50 [6, 16]: 1.9 ± 0.4 µM | MBC [7]: 50 µg/mL (≈ 96.4 µM) | MIC [7]: 25 µg/mL (≈ 48.2 µM) | MBC [8]: > 200 µg/mL | MIC [8]: 100 µg/mL (≈ 193 µM) | MBC [9]: > 200 µg/mL | MIC [9]: 6.25 µg/mL (≈ 12.1 µM) | inhibition at 12.5 µM (aromatase (CYP19)): 0% | Aromatase inhibitory activity (in words) (aromatase (CYP19)): did not show activity | IC50 [10, 17]: 0.3 to 2.9 µM

C=CC(=C)CC[C@]1(C)[C@H](C)C[C@H](O)[C@@]23C(=C[C@H](OC(=O)CC(C)C)C[C@@H]12)[C@@H](OC(C)=O)O[C@H]3OC(C)=O [Compound 8, corymbulosin X]
IC50 [1, 11]: 1.2 ± 0.2 µM | IC50 [2, 12]: 0.4 ± 0.1 µM | IC50 [3]: 0.6 ± 0.1 µM | IC50 [4, 13]: 1.8 ± 0.2 µM | IC50 [5, 14]: 2 to 2.2 µM | IC50 [5, 15]: 2.2 ± 0.1 µM | IC50 [6, 16]: 2.4 ± 0.1 µM | MBC [7]: > 200 µg/mL | MIC [7]: > 200 µg/mL | MBC [8]: > 200 µg/mL | MIC [8]: > 200 µg/mL | MBC [9]: 50 µg/mL (≈ 96.4 µM) | MIC [9]: 25 µg/mL (≈ 48.2 µM) | IC50 [10, 17]: 0.3 to 2.9 µM

C=CC(=C)CC[C@]1(C)[C@H]2C[C@H](OC(=O)CC(C)C)C=C3[C@H](OC(C)=O)O[C@H](OC(C)=O)[C@@]32[C@H](OC)C[C@@H]1C [Compound 9, caseargrewiin A]
IC50 [1, 11]: 3 ± 0.2 µM | IC50 [2, 12]: 5.2 ± 0.4 µM | IC50 [3]: 5 ± 0.5 µM | IC50 [4, 13]: 5.2 ± 0.1 µM | IC50 [5, 14]: 8.1 ± 0.4 µM | IC50 [6, 16]: 9.5 ± 0.8 µM | MBC [7]: > 200 µg/mL | MIC [7]: > 200 µg/mL | MBC [8]: > 200 µg/mL | MIC [8]: > 200 µg/mL | MBC [9]: 100 µg/mL (≈ 188 µM) | MIC [9]: 100 µg/mL (≈ 188 µM) | inhibition at 12.5 µM (aromatase (CYP19)): 31% | Aromatase inhibitory activity (in words) (aromatase (CYP19)): did not show activity

C=CC(=C)CC[C@]1(C)[C@H](C)C[C@H](OC)[C@@]23C(=C[C@H](OC(=O)[C@@H](C)CC)C[C@@H]12)[C@@H](OC)O[C@H]3OC(C)=O [Compound 11, balanspene F]
IC50 [1, 11]: 5 ± 1.7 µM | IC50 [2, 12]: 3.3 ± 0.4 µM | IC50 [3]: 3 ± 0.4 µM | IC50 [4, 13]: 10.3 ± 0.5 µM | IC50 [5, 14]: 11.4 ± 0.5 µM | IC50 [6, 16]: 14.3 ± 1.5 µM | MBC [7]: > 200 µg/mL | MIC [7]: > 200 µg/mL | MBC [8]: > 200 µg/mL | MIC [8]: > 200 µg/mL | MBC, B. cereus (ATCC 11778) [9]: 25 µg/mL (≈ 49.5 µM) | MBC [9]: 25 µg/mL (≈ 49.5 µM) | MIC [9]: 12.5 µg/mL (≈ 24.8 µM) | inhibition at 12.5 µM (aromatase (CYP19)): 25% | Aromatase inhibitory activity (in words) (aromatase (CYP19)): did not show activity

C=CC(C)=CCC1(C)C(C)CC(O)C23C(=CC(OC(=O)C(C)CC)CC12)C(OC(C)=O)OC3OC(C)=O (stereo not shown) [Compound 16, Grewiifopene I]
IC50 ([1]; MOLT-3, read-out: IC50, MOLT-3): 1.2 ± 0.2 µM | IC50 ([2]; HuCC-A1, read-out: IC50, HuCCA-1): 0.7 ± 0.02 µM | IC50 [4]: 0.8 ± 0.1 µM | IC50 ([5]; Homo sapiens, MDA-MB-231, read-out: IC50, MDA-MB-231): 2 ± 0.1 µM | IC50 ([6]; HepG2, read-out: IC50, HepG2): 2.9 µM | IC50 [10]: 0.3 to 2.9 µM

COc1cc([C@@H]2OC[C@@H]3[C@H]2CO[C@H]3c2cc(OC)c(O)c(OC)c2)cc(OC)c1O [Compound 19, (−)-syringaresinol]
IC50 [1, 11]: 75.3 ± 4.9 µM | IC50, HuCCA-1 ([2]; HuCCA-1 cell line, MTT, mean ± s.d. (n = 3)): I (Inactive for cytotoxicity with < 50% inhibition at a concentration of 50 µg/mL) | IC50, A549 ([3]; A549 cell line): I (Inactive for cytotoxicity with < 50% inhibition at a concentration of 50 µg/mL) | IC50, HeLa [4, 13]: I (Inactive for cytotoxicity with < 50% inhibition at a concentration of 50 µg/mL) | IC50, MDA-MB-231 ([5]; MDA-MB-231 cell line, MTT, mean ± s.d. (n = 3)): I (Inactive for cytotoxicity with < 50% inhibition at a concentration of 50 µg/mL) | IC50, HepG2 ([6]; HepG2 cell line, MTT, mean ± s.d. (n = 3)): I (Inactive for cytotoxicity with < 50% inhibition at a concentration of 50 µg/mL) | MBC [7]: > 200 µg/mL | MIC [7]: > 200 µg/mL | MBC [8]: > 200 µg/mL | MIC [8]: > 200 µg/mL | MBC [9]: > 200 µg/mL | MIC [9]: > 200 µg/mL | inhibition at 12.5 µM (aromatase (CYP19)): 17% | Aromatase inhibitory activity (in words) (aromatase (CYP19)): did not show activity | Cytotoxicity against all cell lines (in words) ([10]; even at 50 µg/mL): inactive

COC1=CC(=O)C=C(OC)C1(O)CC(C)=O [Compound 20, 4-acetonyl-3,5-dimethoxy-p-quinol]
IC50 [1, 11]: 10 ± 3.5 µM | IC50 [2, 12]: 111 ± 2.2 µM | IC50 [3]: 125 ± 4.7 µM | IC50 [4, 13]: 132 ± 3.8 µM | IC50 [5, 14]: 24.4 ± 1.2 µM | IC50 [6, 16]: 122 ± 11.3 µM | MBC [7]: > 200 µg/mL | MIC [7]: > 200 µg/mL | MBC [8]: > 200 µg/mL | MIC [8]: > 200 µg/mL | MBC [9]: > 200 µg/mL | MIC [9]: > 200 µg/mL | inhibition at 12.5 µM (aromatase (CYP19)): 0% | Aromatase inhibitory activity (in words) (aromatase (CYP19)): did not show activity
